According to US20170015555A1, “LONG-TERM PRESERVATION AND NOVEL APPLICATION OF CHLOROUS ACID AQUEOUS SOLUTION FORMULATION” (priority 2013, published 2017):

Tests used:
[1] = system: Salmonella Enteritidis IF03313; test: Permeability of pathogenic microbes when treatment sheets were laid on vomit; type: cell-based; conditions: 1000 ppm available chlorine
Source text: (§1) 1) Chlorous acid aqueous solution formulation (see Example 1: Table 11) Treatment sheet (material: 100% cotton): (about 27×40 cm) *Impregnated at a ratio of weight of treatment sheet (g): amount of liquid (ml)=1:3 2) Imitation vomit (hereinafter, referred to as vomit) Miso solution: adjusted to pH 2 with hydrochloric acid 3) Test Microbes that were used E. coli: Escherichia coli IF03927 Staphylococcus aureus: Staphylococcus aureus IF0 12732 Thermoduric Microbes (Bacillus cereus): Bacillus cereus NBRC15305 Microbes of the genus Salmonella: Salmonella Enteritidis IF03313 Enterohemorrhagic Escherichia coli 0157: Escherichia coli 0157 Enterohemorrhagic Escherichia coli 0111: Escherichia coli 0111 Enterohemorrhagic Escherichia coli 026: Escherichia coli O26
(§2) Permeability of pathogenic microbes into a treatment sheet when treating vomit was examined to compare effects of preventing secondary contamination. (1) Imitation vomit is spread in an area about the size of an A4 sheet. (2) 30 agent solution-containing treatment sheets were laid thereon and left standing for 10 minutes. (3) Treatment sheets were removed one at a time from the top. After diluting with saline, the sample was spread in a petri dish and cultured.

[2] = system: Enterohemorrhagic Escherichia coli O111; test: as above; type: cell-based; conditions: 1000 ppm available chlorine
Source text: as §1, §2

[3] = system: Enterohemorrhagic Escherichia coli O26; test: as above; type: cell-based; conditions: 1000 ppm available chlorine
Source text: as §1, §2

[4] = Available chlorine concentration after impregnating diluent in treatment sheet; type: physicochemical
Experimental: (1) The available chlorine concentration of the “chlorous acid aqueous solution formulation (see Example 1: Table 11)” was measured, and the formulation was diluted to an available chlorine concentration of 1000 ppm [chlorous acid (HClO2) concentration: 489 ppm] or 500 ppm [chlorous acid (HClO2) concentration: 245 ppm]. (2) The available chlorine concentration of sodium hypochlorite was measured, and the sodium hypochlorite was diluted to an available chlorine concentration of 1000 ppm or 500 ppm. (3) The available chlorine concentration of the diluted solution was measured to find the available chlorine concentration prior to contact with a treatment sheet. (4) Treatment sheets were stacked, rolled up and inserted into a 200 ml-capacity PET bottle. A solution diluted so that the weight ratio of treatment sheet: agent solution would be 1:3 was poured into the 200 ml-capacity PET bottle containing the treatment sheets. (5) After contact with treatment sheets, treatment sheets were pulled out from the 200 ml-capacity PET bottle immediately after contact, after 1 hour, after 2 hours, after 3 hours, after 12 hours, after 24 hours, after 48 hours (after 2 days), after 72 hours (after 3 days), and after 168 hours (after 7 days). The sheets were used as specimens for examining available chlorine concentrations. (6) Solutions from the treatment sheets, the specimens pulled out from the 200 ml-capacity PET bottle, were wrung out into a 100 mL beaker. The available chlorine concentration of the solution was measured.
1. About 5 g of solution that was wrung out from the specimen was collected in a triangular flask with a stopper. 2. After adding 10 mL of 10 w/w % potassium iodide to the triangular flask with a stopper, 10 mL of 10% sulfuric acid was added. 3. After sealing, the mixture was left standing for 15 minutes in the dark. 4. 0.1 mol/L sodium thiosulfate solution was added until the color became light yellow. About 1 mL of 1 w/w % starch solution was added, and 0.1 mol/L sodium thiosulfate solution was added until the color of the solution became colorless. 5. Chlorine titer was found by the following equation.
R; Chlorine titer value a; Amount of 0.1 mol/L sodium thiosulfate solution added (g) f; Factor of 0.1 mol/L sodium thiosulfate solution w; Weight of measured specimen solution (g) 0.0035; Amount of chlorine corresponding to 1 g of 0.1 mol/L sodium thiosulfate 100; Percentage

## OCl [Sodium Hypochlorite, sodium hypochlorite]
[1]; Day 0 at 25° C.
  Microbe count, 1 sheet laid on imitation vomit: 2.0 × 10^2
  Microbe count, 2 sheets laid on imitation vomit: <10
  Microbe count, 3 sheets laid on imitation vomit: <10
  Microbe count, 4 sheets laid on imitation vomit: <10
  Microbe count, 5 sheets laid on imitation vomit: <10
  Microbe count, 6 sheets laid on imitation vomit: <10
  Microbe count, 8 sheets laid on imitation vomit: <10
  Microbe count, 10 sheets laid on imitation vomit: <10
  Microbe count, 20 sheets laid on imitation vomit: <10
  Microbe count, 30 sheets laid on imitation vomit: <10
[1]; Day 7 at 25° C.
  Microbe count, 1 sheet laid on imitation vomit: >10^6
  Microbe count, 2 sheets laid on imitation vomit: >10^6
  Microbe count, 3 sheets laid on imitation vomit: >10^6
  Microbe count, 4 sheets laid on imitation vomit: >10^6
  Microbe count, 5 sheets laid on imitation vomit: >10^6
  Microbe count, 6 sheets laid on imitation vomit: >10^6
  Microbe count, 8 sheets laid on imitation vomit: 1.1 × 10^4
  Microbe count, 10 sheets laid on imitation vomit: 7.1 × 10^2
  Microbe count, 20 sheets laid on imitation vomit: <10
  Microbe count, 30 sheets laid on imitation vomit: <10
[2]; Day 0 at 25° C.
  Microbe count, 1 sheet laid on imitation vomit: <10
  Microbe count, 2 sheets laid on imitation vomit: <10
  Microbe count, 3 sheets laid on imitation vomit: <10
  Microbe count, 4 sheets laid on imitation vomit: <10
  Microbe count, 5 sheets laid on imitation vomit: <10
  Microbe count, 6 sheets laid on imitation vomit: <10
  Microbe count, 8 sheets laid on imitation vomit: <10
  Microbe count, 10 sheets laid on imitation vomit: <10
  Microbe count, 20 sheets laid on imitation vomit: <10
  Microbe count, 30 sheets laid on imitation vomit: <10
[2]; Day 7 at 25° C.
  Microbe count, 1 sheet laid on imitation vomit: >10^6
  Microbe count, 2 sheets laid on imitation vomit: >10^6
  Microbe count, 3 sheets laid on imitation vomit: >10^6
  Microbe count, 4 sheets laid on imitation vomit: >10^6
  Microbe count, 5 sheets laid on imitation vomit: >10^6
  Microbe count, 6 sheets laid on imitation vomit: >10^6
  Microbe count, 8 sheets laid on imitation vomit: >10^6
  Microbe count, 10 sheets laid on imitation vomit: >10^6
  Microbe count, 20 sheets laid on imitation vomit: >10^6
  Microbe count, 30 sheets laid on imitation vomit: >10^6
[3]; Day 0 at 25° C.
  Microbe count, 1 sheet laid on imitation vomit: <10
  Microbe count, 2 sheets laid on imitation vomit: <10
  Microbe count, 3 sheets laid on imitation vomit: <10
  Microbe count, 4 sheets laid on imitation vomit: <10
  Microbe count, 5 sheets laid on imitation vomit: <10
  Microbe count, 6 sheets laid on imitation vomit: <10
  Microbe count, 8 sheets laid on imitation vomit: <10
  Microbe count, 10 sheets laid on imitation vomit: <10
  Microbe count, 20 sheets laid on imitation vomit: <10
  Microbe count, 30 sheets laid on imitation vomit: <10
[3]; Day 7 at 25° C.
  Microbe count, 1 sheet laid on imitation vomit: >10^6
  Microbe count, 2 sheets laid on imitation vomit: >10^6
  Microbe count, 3 sheets laid on imitation vomit: >10^6
  Microbe count, 4 sheets laid on imitation vomit: >10^6
  Microbe count, 5 sheets laid on imitation vomit: >10^6
  Microbe count, 6 sheets laid on imitation vomit: >10^6
  Microbe count, 8 sheets laid on imitation vomit: >10^6
  Microbe count, 10 sheets laid on imitation vomit: >10^6
  Microbe count, 20 sheets laid on imitation vomit: >10^6
  Microbe count, 30 sheets laid on imitation vomit: >10^6
[4]; set concentration 500, 1 hour of contact
  Available Chlorine Concentration: 175 ppm
[4]; set concentration 500, 2 hours of contact
  Available Chlorine Concentration: 168 ppm
[4]; set concentration 500, 3 hours of contact
  Available Chlorine Concentration: 144 ppm
[4]; set concentration 500, 12 hours of contact
  Available Chlorine Concentration: 91 ppm
[4]; set concentration 500, 24 hours of contact
  Available Chlorine Concentration: 68 ppm
[4]; set concentration 500, 48 hours of contact
  Available Chlorine Concentration: 39 ppm
[4]; set concentration 500, 72 hours of contact
  Available Chlorine Concentration: 39 ppm
[4]; set concentration 500, 168 hours of contact
  Available Chlorine Concentration: 37 ppm
[4]; set concentration 500, 504 hours of contact
  Available Chlorine Concentration: 32 ppm
[4]; set concentration 500, 720 hours of contact
  Available Chlorine Concentration: 20 ppm
[4]; set concentration 500, before contact with treatment sheet
  Available Chlorine Concentration: 549 ppm
[4]; set concentration 500, immediately after contact
  Available Chlorine Concentration: 352 ppm
[4]; set concentration 1000, 1 hour of contact
  Available Chlorine Concentration: 631 ppm
[4]; set concentration 1000, 2 hours of contact
  Available Chlorine Concentration: 595 ppm
[4]; set concentration 1000, 3 hours of contact
  Available Chlorine Concentration: 515 ppm
[4]; set concentration 1000, 12 hours of contact
  Available Chlorine Concentration: 184 ppm
[4]; set concentration 1000, 24 hours of contact
  Available Chlorine Concentration: 89 ppm
[4]; set concentration 1000, 48 hours of contact
  Available Chlorine Concentration: 76 ppm
[4]; set concentration 1000, 72 hours of contact
  Available Chlorine Concentration: 54 ppm
[4]; set concentration 1000, 168 hours of contact
  Available Chlorine Concentration: 40 ppm
[4]; set concentration 1000, 504 hours of contact
  Available Chlorine Concentration: 34 ppm
[4]; set concentration 1000, 720 hours of contact
  Available Chlorine Concentration: 24 ppm
[4]; set concentration 1000, before contact with treatment sheet
  Available Chlorine Concentration: 1045 ppm
[4]; set concentration 1000, immediately after contact
  Available Chlorine Concentration: 690 ppm
